# Biological target: T1, Vitamin D Receptor (VDR) (Bos taurus, UniProt Q28037)
# T1 construct: Bovine thymus 1α,25-dihydroxyvitamin D3 receptor was purchased; purchased YAMASA SHOYU KABUSHIKI KAISHA lot.110431; host or cells: bovine thymus (tissue preparation)
# T1 sequence (Q28037 1-426): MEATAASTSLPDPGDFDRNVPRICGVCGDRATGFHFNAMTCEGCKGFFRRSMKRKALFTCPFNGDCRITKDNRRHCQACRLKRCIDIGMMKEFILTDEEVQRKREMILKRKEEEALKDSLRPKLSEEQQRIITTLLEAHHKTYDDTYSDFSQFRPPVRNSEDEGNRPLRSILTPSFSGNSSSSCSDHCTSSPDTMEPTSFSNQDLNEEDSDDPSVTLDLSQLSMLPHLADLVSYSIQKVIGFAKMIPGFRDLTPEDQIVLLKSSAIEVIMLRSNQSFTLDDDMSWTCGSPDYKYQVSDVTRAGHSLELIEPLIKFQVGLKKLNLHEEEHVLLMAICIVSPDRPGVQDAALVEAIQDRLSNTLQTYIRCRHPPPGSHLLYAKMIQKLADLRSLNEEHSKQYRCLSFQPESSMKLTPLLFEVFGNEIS
# Assay: Assay for binding to vitamin D receptor (VDR), displacement of [3H]-1α,25-dihydroxyvitamin D3
# Settings: relative value with that of 1α,25-dihydroxyvitamin D3 taken as 100; bovine thymus receptor; [3H]-1α,25-dihydroxyvitamin D3 0.1 nM; overnight at 4° C.
# Procedure: Assay for Binding to Vitamin D Receptor (VDR)
# Bovine thymus 1α,25-dihydroxyvitamin D3 receptor was purchased from YAMASA SHOYU KABUSHIKI KAISHA (lot.110431) and 1 ampule (approximately 25 mg) of the receptor was dissolved in 55 mL of 0.05 M phosphate 0.5M potassium buffer (pH 7.4) just before use. Ethanol solutions (50 μl) of 1α,25-dihydroxyvitamin D3 and Compounds 31-35 of the present invention at various concentrations were prepared, mixed with aliquots (500 μl, 0.23 mg protein) of the receptor solution and pre-incubated at room temperature for 1 hour. To the resultant mixtures, [^3H]-1α,25-dihydroxyvitamin D3 was added at the final concentration of 0.1 nM, followed by incubation overnight at 4° C.
# The reaction mixtures were treated with dextran coated charcoal for 30 minutes at 4° C. to separate the bound and free forms of [^3H]-1α,25-dihydroxyvitamin D3, and centrifuged at 3000 rpm for ten minutes. Each of the resultant supernatants (500 μl) was mixed with ACS-II (9.5 ml) (AMERSHAM, England) for radioactivity measurement.
# The binding properties of Compounds 31-35 of the present invention were expressed in relative values with that of 1α,25-dihydroxyvitamin D3 taken as 100.
row,Compound,Binding property
1,"C=C1C(=CC=C2CCCC3(C)C2CCC3C(C)CCCC(C)(C)O)CC(O)C(CCO)C1O [Compound 32, (5Z,7E)-(1S,2S,3R,20R)-9,10-seco-5,7,10(19)-cholestatriene-2-(2′-hydroxyethyl)-1,3,25-triol]",70
2,"(5Z,7E)-(1S,2S,3R,20R)-9,10-seco-5,7,10(19)-cholestatriene-2-(3′-hydroxypropyl)-1,3,25-triol [Compound 33]",300
3,"C=C1/C(=C\C=C2/CCC[C@]3(C)[C@@H]([C@H](C)CCCC(C)(C)O)CC[C@@H]23)C[C@@H](O)[C@H](CC)[C@@H]1O [Compound 34, (5Z,7E)-(1S,2S,3R,20R)-9,10-seco-5,7,10(19)-cholestatriene-2-ethyl-1,3,25-triol]",40

# More lines, now with the values ahead:
row,Binding property,Compound
1,20,"C=C1C(=CC=C2CCCC3(C)C2CCC3C(C)CCCC(C)(C)O)CC(O)C(CCC)C1O [Compound 35, (5Z,7E)-(1S,2S,3R,20R)-9,10-seco-5,7,10(19)-cholestatriene-2-propyl-1,3,25-triol]"
2,20,"(5Z,7E)-(1S,2S,3R,20R)-9,10-seco-5,7,10(19)-cholestatriene-2-hydroxymethyl-1,3,25-triol [Compound 31]"

# Reference: US20050113349A1, “2-Alpha vitamin D derivatives having substituents” (Hiroaki TAKAYAMA, priority 1999, published 2005)
